Source: patent US10669263B2, “Substituted benzimidazole derivative as a modulator of TNF activity” (UCB Biopharma SRL, priority 2016, dated 2020)
“And” between values parts separate entries of the source, which are not always exact repeats. Equal values may be shown once.

Tests used:
TNFα [1] = biological target: T1, TNFα (Homo sapiens, UniProt P01375); assay: Fluorescence polarisation assay: inhibition of binding of fluorescence conjugate to TNFα; conditions: 10 nM TNFα, 10 nM fluorescence conjugate, 60 minutes pre-incubation, then 20 hours at ambient temperature
Procedure: Fluorescence Polarisation Assay
Inhibition of Binding of Fluorescence Conjugate to TNFα
Compounds were tested at 10 concentrations starting from 25 μM in a final assay concentration of 5% DMSO, by pre-incubation with TNFα for 60 minutes at ambient temperature in 20 mM Tris, 150 mM NaCl, 0.05% Tween 20, before addition of the fluorescence conjugate and a further incubation for 20 hours at ambient temperature. The final concentrations of TNFα and the fluorescence conjugate were 10 nM and 10 nM respectively in a total assay volume of 25 μL. Plates were read on a plate reader capable of detecting fluorescence polarisation (e.g. an Analyst HT plate reader; or an Envision plate reader). An IC50 value was calculated using XLfit™ (4 parameter logistic model) in ActivityBase.

TNFα [2] = biological target: T1, TNFα; assay: Reporter gene assay (HEK-293 bioassay): inhibition of TNFα-induced NF-κB activation in HEK-Blue CD40L cells; assay type: cell-based; conditions: 0.5 ng/mL TNFα, 60 minutes preincubation, 18 h incubation, read-out: IC50 value, inhibition of TNFα-induced NF-κB activation (SEAP reporter)
From the text: The compounds in accordance with the present invention potently neutralise the activity of TNFα in a commercially available HEK-293 derived reporter cell line known as HEK-Blue™ CD40L. This is a stable HEK-293 transfected cell line expressing SEAP (secreted embryonic alkaline phosphatase) under the control of the IFNβ minimal promoter fused to five NF-κB binding sites. Secretion of SEAP by these cells is stimulated in a concentration-dependent manner by TNFα.
Inhibition of TNFα-induced NF-κB Activation
Stimulation of HEK-293 cells by TNFα leads to activation of the NF-κB pathway. The reporter cell line used to determine TNFα activity was purchased from InvivoGen. HEK-Blue™ CD40L is a stable HEK-293 transfected cell line expressing SEAP (secreted embryonic alkaline phosphatase) under the control of the IFNβ minimal promoter fused to five NF-κB binding sites. Secretion of SEAP by these cells is stimulated in a dose-dependent manner by TNFα, with an EC50 of 0.5 ng/mL for human TNFα. […] SEAP activity was determined in the supernatant using a colorimetric substrate, e.g. QUANTI-Blue™ or HEK-Blue™ Detection media (InvivoGen). Percentage inhibitions for compound dilutions were calculated between a DMSO control and maximum inhibition (by excess control compound) and an IC50 value calculated using XLfit™ (4 parameter logistic model) in ActivityBase.

T1 sequence (P01375 77-233 limits assumed): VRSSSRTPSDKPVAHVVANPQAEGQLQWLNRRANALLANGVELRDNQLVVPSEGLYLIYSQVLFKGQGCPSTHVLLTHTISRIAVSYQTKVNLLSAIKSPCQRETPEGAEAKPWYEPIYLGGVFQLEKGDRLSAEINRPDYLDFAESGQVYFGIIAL

Cc1nc2ccc(-c3cnc(C(C)(C)O)nc3)cc2n1Cc1c(F)cccc1OC(F)F [Example 1, 2-(5-{1-[2-(Difluoromethoxy)-6-fluorobenzyl]-2-methyl-1H-benzimidazol-6-yl}-pyrimidin-2-yl)propan-2-ol]
IC50 (TNFα [1]): < 20 nM and 0.1 to 20 nM
IC50 (TNFα [2]): < 50 nM and 0.5 to 50 nM
